Holding throughout (type): functional
Experiment [1] deals with T1, High affinity choline transporter 1 (Homo sapiens, UniProt Q9GZV3).
T1 sequence (Q9GZV3 whole entry): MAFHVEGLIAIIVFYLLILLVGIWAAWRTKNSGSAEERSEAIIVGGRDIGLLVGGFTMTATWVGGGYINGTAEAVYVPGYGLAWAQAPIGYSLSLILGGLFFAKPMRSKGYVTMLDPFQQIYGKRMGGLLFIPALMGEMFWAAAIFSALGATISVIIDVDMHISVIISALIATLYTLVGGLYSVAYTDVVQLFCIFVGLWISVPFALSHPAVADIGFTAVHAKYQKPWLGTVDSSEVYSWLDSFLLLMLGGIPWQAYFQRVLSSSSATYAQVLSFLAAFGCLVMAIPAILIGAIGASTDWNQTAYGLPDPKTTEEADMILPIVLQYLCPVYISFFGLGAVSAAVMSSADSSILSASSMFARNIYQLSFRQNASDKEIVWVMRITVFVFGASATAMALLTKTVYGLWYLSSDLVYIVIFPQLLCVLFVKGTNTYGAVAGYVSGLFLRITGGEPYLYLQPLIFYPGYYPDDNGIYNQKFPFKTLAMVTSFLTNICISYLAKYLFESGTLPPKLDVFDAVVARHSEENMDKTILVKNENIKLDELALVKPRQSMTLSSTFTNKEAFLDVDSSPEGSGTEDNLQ
Kind of experiment: human choline transporter blockers, potency – cell-based, 10-point CRC, membrane potential dye, dose response (AID 588401).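 Also: membrane potential dye fluorescence of choline-evoked depolarization via CHT.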

The target of experiment [2] is Delta-type opioid receptor (Homo sapiens, UniProt P41143). Kind of experiment: Counterscreen for agonists of heterodimerization of the mu 1 (OPRM1) and delta 1 (OPRD1) opioid receptors: Luminescence-based cell-based high throughput dose response assay to identify agonists of OPRD1 homodimerization. [Related pubchem assays (depositor defined):AID504326, AID504355, AID504692, AID504904, AID504905]. (A counterscreen serves to expose hits that act by an unwanted route or on another target.)
Sequence of Delta-type opioid receptor (P41143 whole entry): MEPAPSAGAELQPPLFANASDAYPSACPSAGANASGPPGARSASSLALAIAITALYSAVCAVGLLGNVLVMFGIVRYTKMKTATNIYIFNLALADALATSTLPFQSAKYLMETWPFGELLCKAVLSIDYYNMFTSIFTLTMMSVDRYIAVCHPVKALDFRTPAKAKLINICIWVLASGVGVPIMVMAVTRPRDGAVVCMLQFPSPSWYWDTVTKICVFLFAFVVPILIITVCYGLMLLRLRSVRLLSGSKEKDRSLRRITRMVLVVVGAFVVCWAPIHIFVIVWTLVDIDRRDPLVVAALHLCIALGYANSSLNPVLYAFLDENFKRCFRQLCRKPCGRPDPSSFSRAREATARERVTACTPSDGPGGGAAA

In experiment [3] the target is T1, High affinity choline transporter 1. Kind of experiment: human choline transporter blockers, potency – cell-based, 5-point CRC, membrane potential dye, dose response (AID 504840).
The target of experiment [4] is 5-hydroxytryptamine receptor 5A (Homo sapiens, UniProt P47898). Kind of experiment: Counterscreen for agonists of OPRM1-OPRD1 heterodimerization: luminescence-based cell-based high throughput dose response assay to identify agonists of 5-hydroxytryptamine (serotonin) 5A receptor (HTR5A). [Related pubchem assays (depositor defined):AID504326, AID504355, AID504692, AID504904, AID504905].
Sequence of 5-hydroxytryptamine receptor 5A (P47898 whole entry): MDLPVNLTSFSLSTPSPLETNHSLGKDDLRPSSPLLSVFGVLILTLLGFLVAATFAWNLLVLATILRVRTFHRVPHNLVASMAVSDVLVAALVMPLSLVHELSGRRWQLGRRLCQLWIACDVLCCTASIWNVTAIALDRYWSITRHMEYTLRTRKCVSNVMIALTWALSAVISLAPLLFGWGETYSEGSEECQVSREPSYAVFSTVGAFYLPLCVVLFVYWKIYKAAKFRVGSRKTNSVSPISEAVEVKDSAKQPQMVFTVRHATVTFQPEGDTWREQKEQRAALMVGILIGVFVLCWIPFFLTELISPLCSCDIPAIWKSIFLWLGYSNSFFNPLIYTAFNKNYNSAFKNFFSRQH

The target in experiment [5] is T2, Short transient receptor potential channel 4 (Mus musculus, UniProt Q9QUQ5).
T2 sequence (Q9QUQ5 whole entry): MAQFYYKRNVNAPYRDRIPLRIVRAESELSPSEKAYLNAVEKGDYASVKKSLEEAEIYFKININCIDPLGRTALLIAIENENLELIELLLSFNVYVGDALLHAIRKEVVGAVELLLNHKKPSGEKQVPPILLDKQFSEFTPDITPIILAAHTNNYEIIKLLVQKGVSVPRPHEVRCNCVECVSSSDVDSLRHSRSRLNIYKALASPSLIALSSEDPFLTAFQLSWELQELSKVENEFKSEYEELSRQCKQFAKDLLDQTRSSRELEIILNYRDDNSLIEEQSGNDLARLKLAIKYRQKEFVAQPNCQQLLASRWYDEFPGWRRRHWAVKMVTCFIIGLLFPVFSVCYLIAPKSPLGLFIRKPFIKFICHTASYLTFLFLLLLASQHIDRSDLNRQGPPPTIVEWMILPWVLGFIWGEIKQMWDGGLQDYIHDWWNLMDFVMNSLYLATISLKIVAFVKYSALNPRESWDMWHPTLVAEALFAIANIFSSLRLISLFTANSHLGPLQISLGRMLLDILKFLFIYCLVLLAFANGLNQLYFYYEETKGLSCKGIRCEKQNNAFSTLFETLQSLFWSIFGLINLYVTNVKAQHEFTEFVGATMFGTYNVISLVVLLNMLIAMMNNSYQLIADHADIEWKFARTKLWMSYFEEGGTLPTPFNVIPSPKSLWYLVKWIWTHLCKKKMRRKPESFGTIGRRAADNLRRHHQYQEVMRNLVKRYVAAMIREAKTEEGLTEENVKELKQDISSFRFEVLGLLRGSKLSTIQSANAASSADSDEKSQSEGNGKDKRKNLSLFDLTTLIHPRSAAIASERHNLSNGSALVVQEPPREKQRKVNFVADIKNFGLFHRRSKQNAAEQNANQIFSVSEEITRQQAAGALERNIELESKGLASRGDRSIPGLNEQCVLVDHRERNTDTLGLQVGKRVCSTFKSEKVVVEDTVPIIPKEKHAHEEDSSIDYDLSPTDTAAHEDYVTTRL
Kind of experiment: calcium entry via TRPC4 opening agents – cell-based, HEK293 TRPC4/mu-opioid, Fluo-4 calcium, dose response (AID 434937).

The next experiment has as its target Mu-type opioid receptor (Homo sapiens, UniProt P35372). Kind of experiment: Counterscreen for agonists of heterodimerization of the mu 1 (OPRM1) and delta 1 (OPRD1) opioid receptors: Luminescence-based cell-based high throughput dose response assay to identify agonists of OPRM1 homodimerization.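 Also: U2OS cells expressing OPRM1 and beta-arrestin as split beta-galactosidase partners.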

Structures are written as SMILES. The source made the active and inactive calls. Where only a bound is given, the exact number is not on record here.

Sequence of Mu-type opioid receptor (P35372 whole entry): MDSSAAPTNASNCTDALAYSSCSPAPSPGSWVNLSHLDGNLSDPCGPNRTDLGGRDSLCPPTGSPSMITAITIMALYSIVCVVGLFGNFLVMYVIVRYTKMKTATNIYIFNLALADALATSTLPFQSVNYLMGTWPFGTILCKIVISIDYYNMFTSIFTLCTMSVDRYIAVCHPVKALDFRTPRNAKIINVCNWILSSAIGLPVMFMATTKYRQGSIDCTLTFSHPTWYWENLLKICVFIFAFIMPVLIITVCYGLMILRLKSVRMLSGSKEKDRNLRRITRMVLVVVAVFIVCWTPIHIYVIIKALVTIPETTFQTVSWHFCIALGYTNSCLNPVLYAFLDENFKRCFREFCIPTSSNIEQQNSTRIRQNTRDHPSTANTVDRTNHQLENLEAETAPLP

For the compound `CCOc1ccc(S(=O)(=O)Nc2cccc(C(=O)NCC(c3ccccc3)N(C)C)c2)cc1` (stereo unspecified), the IC50 is 3.76 µM (active) in experiment [1] and 4.43 µM (active) in experiment [3]. The EC50 in experiment [2] is 14.1 µM (inactive); in experiment [4], > 92.5 µM (inactive); in experiment [5], 2.99 µM (active); on Mu-type opioid receptor, > 92.5 µM (inactive).

Broadly, the IC50 is the concentration that inhibits the measured activity by half. One may read the EC50 as the concentration giving half of the maximal effect.

For the origin of these results see ChEMBL document CHEMBL1201862, “PubChem BioAssay data set” (2004).
